We go through 4 compounds from patent US7172907B2, “Cyanine dye labelling reagents with meso-substitution” (GE Healthcare Bio-Sciences Corp., priority 2003, dated 2007).

A short description of data set [1]: Fluorescence quantum yield relative to Cy5. It counts as physicochemical. The following applies: expressed as fraction of that of Cy5. As to the method: (§1) 2-{N-Acetyl-N-phenyl}aminoethenyl-1,3,3-trimethylindoleriine and 2-{N-acetyl-N-phenyl}aminoethenyl-1-{6-carboxypentyl}-3,3-trimethylindolenine (20 mmoles of each) and 10 equivalents of cyanoacetic acid in pyridine (100 ml) were heated under reflux under Argon for 4 hours. At the end of the reaction, the pyridine was evaporated and the product purified by repeated HPLC purification followed by silica gel column chromatography with increasing amounts of MeOH in ethyl acetate as the eluant to give a pure product, 2-{5-[1-(5-carboxypentyl)-3,3-dimethyl-1,3-dihydro-2H-indol-2-ylidene]-3-cyano-1,3-pentadienyl}-1,3,3-trimethyl-3H-indolinium (meso-cyano Cy5). Absorption maximum (MeOH): 610 nm: Emission maximum (MeOH): 628 nm; Quantum yield: 0.65 that of Cy5.

The nature of data set [2]: Photostability: ethanolic solution left in the room light, fading of the dyes. The class given is physicochemical.
Data set [3] in a line: Absorption and emission spectra of meso-cyano Cy5 in MeOH. It counts as physicochemical. The protocol:
as §1

Data set [4] can be described thus: Hydrolytic stability in de-ionized water, fading of the dyes. It counts as physicochemical.
The conditions of data set [5]: background values for known Cy dyes, X = Y = C(CH3)2; cited from earlier work.

In the case of `CN1/C(=C/C=C(C#N)/C=C/C2=[N+](CCCCCC(=O)O)c3ccccc3C2(C)C)C(C)(C)c2ccccc21` [meso-cyano Cy5, 2-{5-[1-(5-Carboxypentyl)-3,3-dimethyl-1,3-dihydro-2H-indol-2-ylidene]-3-cyano-1,3-pentadienyl}-1,3,3-trimethyl-3H-indolinium], the Quantum yield in data set [1] came out at 0.65. In data set [2] (read-out: Photostability: half-life (t1/2) for fading of the dyes), the half-life is above 3.12 days. In data set [3], this compound registered an Absorption maximum of 610 nm and an Emission maximum of 628 nm. In addition, the half-life in data set [4] (pH=6.85, read-out: Hydrolytic stability: half-life (t1/2) for fading of the dyes) is above 6.25 days.

On to Cy5.5, for which, in data set [5], the Abs max is 675 nm and the Em max is 694 nm.

For the compound `CCN1/C(=C/C=C/C=C/C2=[N+](CCCCCC(=O)O)c3ccc(S(=O)(=O)O)cc3C2(C)C)C(C)(C)c2cc(S(=O)(=O)[O-])ccc21` [Cy5], in data set [2], the “Photostability: half-life (t1/2) for fading of the dyes” value was found to be 22 h. For the same compound, in data set [5], the Abs max is listed as 649 nm and the Em max was 670 nm. Moreover, the “Hydrolytic stability: half-life (t1/2) for fading of the dyes” value in data set [4] (pH=6.85) came to 56 h.

Take `CCN1C(=CC=CC2=[N+](CCCCCC(=O)O)c3ccc(S(=O)(=O)O)cc3C2(C)C)C(C)(C)c2cc(S(=O)(=O)[O-])ccc21` [Cy3]: in data set [5], the Abs max is listed as 550 nm and the Em max was 570 nm.
